Data set [1] is described as follows: Oral delivery of caspofungin acetate with delivery agent; plasma caspofungin acetate concentration. It is filed as in vivo, male Sprague-Dawley rats. The settings on record: Delivery Agent 200 mg/kg, caspofungin acetate: 25 mg/kg. The protocol:
Oral gavage dosing solutions of delivery agent compound and caspofungin acetate (Merck & Co., Whitehouse Station, N.J.) in phosphate buffer were prepared by mixing. A solution of the delivery agent compound was made either with the sodium salt of the delivery agent compound or by converting the free acid to its sodium salt. A solution of the delivery agent compound was prepared in phosphate buffer and stirred, adding one equivalent of sodium hydroxide (1.0 N) when making the sodium salt. The final dosing solutions were prepared by mixing the delivery agent compound solution with a caspofungin acetate stock solution (2.5 ml with a concentration of 100 mg/ml in aqueous solution). The pH was adjusted, if necessary, to between about 7 and 8.8. Male Sprague-Dawley rats weighing between about 250-300 g were fasted for 24 hours. A dosing group of five animals was administered one of the dosing solutions. An 11 cm Rusch 8 French catheter was adapted to a 1 ml syringe with a pipette tip. The syringe was filled with the dosing solution by drawing the solution through the catheter, which was then wiped dry. The catheter was placed down the esophagus leaving 1 cm of tubing past the incisors. The dosing solution was administered by pressing the syringe plunger. Blood samples were collected through retroorbital bleeding at time=0 (pre-dose), 15, 30, 60, 240, and 480 minutes. […]

A short description of data set [2]: Oral delivery of LHRH with delivery agent; plasma LHRH concentration. It is filed as in vivo, male Sprague-Dawley rats. The settings on record: Delivery Agent: 200 mg/kg, LHRH: 1 mg/kg. The protocol:
Oral gavage dosing solutions of delivery agent compound and LHRH in phosphate buffer were prepared by mixing. A solution of the delivery agent compound was made either with the sodium salt of the delivery agent compound or by converting the free acid to its sodium salt. A solution of the delivery agent compound was prepared in phosphate buffer and stirred, adding one equivalent of sodium hydroxide (1.0 N) when making the sodium salt. The final dosing solutions were prepared by mixing the delivery agent compound solution with a LHRH stock solution (2.75 ml with a concentration of 20 mg/ml in aqueous solution). The pH was adjusted, if necessary, to between about 7 and 8.8.
(§1) Male Sprague-Dawley rats weighing between about 250-300 g were fasted for 24 hours. A dosing group of five animals was administered one of the dosing solutions. An 11 cm Rusch 8 French catheter was adapted to a 1 ml syringe with a pipette tip. The syringe was filled with the dosing solution by drawing the solution through the catheter, which was then wiped dry. The catheter was placed down the esophagus leaving 1 cm of tubing past the incisors. The dosing solution was administered by pressing the syringe plunger.
Blood samples were collected through retroorbital bleeding of approximately 0.4 ml of blood volume using EDTA tubes at time=0 (pre-dose), 2, 10, 15 and 30 minutes. The five samples from each time period were pooled. Previous studies indicated baseline values of about zero. The maximum absorption at the Tmax is reported below in Table 7. As controls, 4-(3-methyl phenoxy) butyric acid (D.A. “B”), the mesylate salt of (4-(8-(2-hydroxyphenoxy)octyl) morpholine (D.A. “C”), 4-(4-(2-hydroxyphenoxy)butyl) morpholine (D.A. “D”), and 4-(6-(2-hydroxyphenoxy)hexyl) morpholine (D.A. “E”) were also administered according to the same protocol and their results are also shown in FIG. 6.

A short description of data set [3]: Oral delivery of heparin with delivery agent; plasma heparin concentration. The settings on record: Delivery Agent 200 mg/kg, Heparin 80 mg/kg. It is filed as in vivo, male Sprague-Dawley rats.
Data set [4] has as its system Blood glucose levels. Put plainly: Oral delivery of insulin with delivery agent compound; blood glucose by glucometer. It is filed as in vivo, male Sprague-Dawley rats. The protocol:
Insulin stock solution (15 mg/ml) (Human zinc insulin, Calbiochem-Novabiochem Corp., La Jolla, Calif.) was prepared with deionized water. Oral dosing compositions containing 200 mg/kg of delivery agent compound and 0.5 mg/kg of insulin in aqueous solution were prepared with the delivery agent compound shown in Table 1 below. Either the sodium salt of the delivery agent compound was used or the free acid was converted to the sodium salt with one equivalent of sodium hydroxide.
The dosing solution was administered to fasted male Sprague-Dawley rats by oral gavage with an average weight of about 225-250 grams. Blood glucose levels were then determined by glucometer (One Touch Ultra®, LifeScan, Inc.) and compared to vehicle control (1 ml/kg of water). Samples were collected prior to dosing (time 0) and at 15, 30, 45 and 60 minutes after dosing. The % glucose reduction values in Table 1 are values found at the C minimum, and are an average % reduction with respect to the number of times the experiment was run for each delivery agent.
0.5 mg/kg of Insulin and 25-100 mg/kg of delivery agent compound (particular amount shown in Table 2 below) was administered to male Sprague-Dawley rats with an average weight of about 225-250 grams. The purpose of this test was to ascertain the dose response of the delivery agent compound. Glucose reduction was determined as set forth in connection with the data in Table 1.
Insulin Titrations were performed with Delivery Agent 29 in order to gauge the effect of varying dosages of insulin.

For data set [5], the system named is activated partial thromboplastin time (APTT). Put plainly: Intracolonic delivery of heparin with delivery agent; clotting time (APTT). It is filed as in vivo, male Sprague-Dawley rats. The settings on record: Delivery Agent 50 mg/kg, USP Heparin 25 mg/kg. The protocol:
Oral gavage and/or intracolonic (IC) dosing solutions containing delivery agent compound and heparin sodium USP were prepared in 25% aqueous propylene glycol. Either the sodium salt of the delivery agent compound was used or the free acid was converted to the sodium salt with one equivalent of sodium hydroxide. The delivery agent compound and heparin (about 166-182 IU/mg) were mixed by vortex as dry powders. This dry mixture was dissolved in 25% v/v aqueous propylene glycol, vortexed, and placed in a sonicator (about 37° C.). The pH was adjusted to about 7 (6.5-8.5) with aqueous NaOH (2N). The dosing solution was sonicated to produce a clear solution. The final volume was adjusted to about 3.0 ml.
as §1, with “about 275-350” for “about 250-300”, “24 hours and anesthetized with ketamine hydrochloride (88 mg/kg) intramuscularly immediately prior to dosing and again as needed to maintain anesthesia.” for “24 hours.”, “animals were” for “animals was”, “solutions. For oral gavage dosing, an” for “solutions. An”, “with” for “with the”
For intracolonic (IC) dosing, a 7.5 cm, 8 French Rusch catheter was adapted to a 1 ml syringe with a pipette tip. The dosing catheter was inserted into the colon through the anus until the tube was no longer visible. The dosing solution was expressed slowly into the colon by pressing the syringe plunger.
Citrated blood samples were collected by cardiac puncture following the administration of ketamine (88 mg/kg), typically at 0.25, 0.5, 1.0 and 1.5 hours after dosing. Heparin absorption was verified by an increase in clotting time measured by the activated partial thromboplastin time (APTT) according to the method of Henry, J. B., Clinical Diagnosis and Management by Laboratory Methods, Philadelphia, Pa., W.B. Saunders (1979), which is hereby incorporated by reference. Previous studies indicated baseline values of about 20 seconds. Results from the animals in each group were averaged for each time points and the highest of these averages (i.e. mean peak APTT) is reported.

Where [6] appears, read: dose response, Delivery Agent Compound 50 mg/kg, Insulin 0.5 mg/kg.
[7] abbreviates: dose response, Delivery Agent Compound 100 mg/kg, Insulin 0.5 mg/kg.
Setting [8] is: oral gavage, 200 mg/kg Delivery Agent Compound, 0.5 mg/kg Insulin, value at C minimum vs vehicle control.

`COc1ccc(SCCCCC(=O)O)cc1` [Compound 14, 5-(4-Methoxy-phenylsulfanyl)-pentanoic acid]: the time to peak (Tmax) in data set [1] came out at 60 min.

`Cc1ccc(C)c(SCCCC(=O)O)c1` [Compound 7, 4-(2,5-Dimethyl-phenylsulfanyl)-butyric acid] gave a melting point of 61 to 62 °C. In addition, in data set [2], the time of peak concentration (Tmax) was 5 min. The time of peak concentration (Tmax) in data set [3] was found to be 60 min.

In turn, `O=C(O)CCCCCCCSc1ccccc1O` [Compound 5, 8-(2-Hydroxy-phenylsulfanyl)-octanoic acid] gave a melting point of 49 to 50 °C. In addition, the time to peak (Tmax) in data set [2] stood at 5 min. Besides, the “% Glucose Reduction” value in data set [4] (setting [6]) is reported as −13.5%. In addition, the “% Glucose Reduction” value in data set [4] (setting [7]) is −18.2%.

For `COc1ccccc1SCCCCCC(=O)O` [Compound 3, 6-(2-Methoxy-phenylsulfanyl)-hexanoic acid], the melting point was in the range of 81 to 82 °C. Moreover, the time of peak concentration (Tmax) in data set [2] was 5 min.

On to `Cc1ccc(C)c(SCCCCCCCC(=O)O)c1` [Compound 2, 8-(2,5-Dimethyl-phenylsulfanyl)-octanoic acid], for which the melting point is 60 to 63 °C. In data set [4] (dose response, Delivery Agent Compound 25 mg/kg, Insulin 0.5 mg/kg), the “% Glucose Reduction” value is listed as −10.0%. The Tmax in data set [3] turned out to be 45 min.

Compound `COc1ccccc1SCCCCCCCC(=O)O` [Compound 1, 8-(2-Methoxy-phenylsulfanyl)-octanoic acid] displayed a melting point of 62 to 63 °C. In data set [2], the Tmax came out at 5 min. Moreover, the “% Glucose Reduction” value in data set [4] (setting [8]) was −0.2%. Besides, in data set [5], the “APTT (mean peak)” value is 180 s. The Tmax in data set [5] (time of peak APTT) worked out at 30 min.

Compound `Cc1ccc(C)c(SCCCCCC(=O)O)c1` [Compound 6, 6-(2,5-Dimethyl-phenylsulfanyl)-hexanoic acid] displayed a melting point of 61 to 62 °C. The time of peak concentration (Tmax) in data set [2] came out at 5 min. In data set [4] (setting [6]), the “% Glucose Reduction” value is on record as −15.8%. The “% Glucose Reduction” value in data set [4] (setting [7]) is on record as −19.2%. Also, the “% Glucose Reduction” value in data set [4] (setting [8]) is recorded as −9.8 ± 30.4%. For the same compound, the Tmax in data set [3] turned out to be 15 min.

Source of the values: patent publication US9873667B2, “Arylsulfanyl compounds and compositions for delivering active agents” (EMISPHERE TECHNOLOGIES INC., priority 2006, dated 2018).
